Data set [1] relates to human umbilical vein endothelial cells (HUVECs). The data set is described as follows: Three dimensional (3D) endothelial sprouting assay. It is filed as cell-based. To be noted: HUVEC, CM-supplemented 3D-fibrin cultures, read-out: IC90 for inhibiting endothelial cell sprouting. The method, then: Three Dimensional (3D) Endothelial Sprouting Assay. The assay was performed using a minimum of 3 replicate wells of a 48 well tissue culture plate per drug dose per experiment, repeated 3 independent times in which human umbilical vein endothelial cells (HUVECs) obtained from Lonza Walkersville Inc (Walkersville, MD) attached to gelatin-coated dextran microcarrier bead are embedded in a fibrin matrix as described previously (Brennen et al. Oncotarget 7, 71298-71308 (2016)).
Besides its therapeutic effects on cancer cells, TasQ's anti-cancer efficacy also involves its dose-dependent anti-angiogenic activity (see, e.g., Isaacs 2006, Olsson 2010, Dalrymple 2012), Isaacs 2013, Isaacs 2014, Brennen 2016). To clarify the MoA for this anti-angiogenic activity, a 3-dimensional (3D) endothelial cell sprouting assay was used. In this assay, human umbilical vein endothelial cells (HUVECs) in basal media supplemented with VEGF, EGF, FGF, IGF1 and 2% FBS in standard 2D cultures are attached to collagen-coated beads embedded in a 3D-fibrin gel in the same growth factor-supplemented media. […] This lack of sprouting is associated with an upregulation in Mef-2c mRNA (Table 2) and protein (FIG. 38), and its target genes (Table 2) like Alpha 2 Macroglobulin (A2M). […]

The subject of data set [2] is HIF-1α protein in LNCaP cells. The data set is described as follows: Nuclear HIF-1α protein level in LNCaP cells (immunoblot). The class given is cell-based, human. Particulars: LNCaP cells in vitro, read-out: IC50 for decreasing nuclear HIF-1α protein. As to the method: Western Blot Analysis. Analysis and quantification of protein expression via immunoblot was performed as previously described (Brennen 2021). All assays were performed with total cell lysates from an equal number (i.e., 100,000) of cells loaded per lane for accurate comparisons across cell lines and conditions.
[…] is an HDAC4 client (see, e.g., Isaacs 2013) binding between AA 603-788 in its inhibitory domain to HDAC4 (Seo et al. FEBS Lett 583, 55-604 (2009)). As a client, the HDAC4/NCoR1/HDAC3 complex deacetylates the N-terminal lysines, which stabilizes and thus activates HIF-1α as a transcription factor (see, e.g., Isaacs 2013). In LNCaP cells under normoxic conditions, HIF-1α protein is low, cytoplasmic, and mostly unphosphorylated; while under hypoxic conditions, it is increased, nuclear, and phosphorylated (i.e., slower migrating band on western blot) (see, e.g., Isaacs 2013) (FIG. 30). HDAC4 KD in LNCaP prostate cancer cells prevents deacetylation-dependent stabilization, resulting in a reduction of nuclear HIF-1α protein (FIG. 31). […] The causal importance of decreased HIF-1α protein for in vivo growth was evaluated by knocking down HIF-1α protein expression in LNCaP cells (FIG. 31), and assessing xenograft growth.
(In general: A western blot detects proteins with antibodies after separation by electrophoresis.)

The target of a further data set is T1, human AHR (Homo sapiens, UniProt P35869).
T1 construct: from tissue; host or cells: liver cytosol of liver-specific hAHR transgenic mice
T1 sequence (P35869 11-848): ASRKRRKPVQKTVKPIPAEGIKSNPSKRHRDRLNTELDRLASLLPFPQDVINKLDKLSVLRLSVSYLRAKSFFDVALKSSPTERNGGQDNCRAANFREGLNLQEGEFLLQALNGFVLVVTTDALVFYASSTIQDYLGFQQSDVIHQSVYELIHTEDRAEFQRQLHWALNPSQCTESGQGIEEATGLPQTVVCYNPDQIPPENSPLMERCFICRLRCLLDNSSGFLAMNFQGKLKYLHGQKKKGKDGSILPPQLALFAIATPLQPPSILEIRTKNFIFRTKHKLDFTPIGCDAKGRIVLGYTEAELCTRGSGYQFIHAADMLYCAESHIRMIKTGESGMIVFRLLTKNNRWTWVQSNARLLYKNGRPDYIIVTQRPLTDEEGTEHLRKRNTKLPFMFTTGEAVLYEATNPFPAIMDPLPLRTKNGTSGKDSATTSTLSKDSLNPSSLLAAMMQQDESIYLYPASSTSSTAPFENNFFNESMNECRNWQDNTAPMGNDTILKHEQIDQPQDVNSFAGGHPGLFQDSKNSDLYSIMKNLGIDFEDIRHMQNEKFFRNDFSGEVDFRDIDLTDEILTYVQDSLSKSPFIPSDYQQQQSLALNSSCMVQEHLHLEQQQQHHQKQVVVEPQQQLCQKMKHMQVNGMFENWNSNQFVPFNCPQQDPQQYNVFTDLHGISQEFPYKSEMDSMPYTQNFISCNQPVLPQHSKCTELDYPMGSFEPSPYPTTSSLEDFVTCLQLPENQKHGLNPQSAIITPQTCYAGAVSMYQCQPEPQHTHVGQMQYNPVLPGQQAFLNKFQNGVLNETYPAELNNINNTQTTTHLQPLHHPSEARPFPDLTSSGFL
The data set is described as follows: Photo-affinity ligand (PAL) competitive binding to human AHR in liver cytosol of hAHR transgenic mice. As to the method: AHR Binding Assay. Photo-affinity competitive ligand binding to the human AHR was performed as described previously (Brennen 2021).
This raises the issue of whether the induction of AHR target genes is a result of TasQ or one of its metabolites binds to AHR as a ligand. To test whether TasQ is an AHR ligand, liver cytosol lacking microsomal CYPs was isolated from liver-specific human AHR (hAHR)-expressing transgenic mice.

In data set [3] the target is T2, nuclear MEF2/HDAC4/NCoR1 formation in CWR-22Rv1 cells (Homo sapiens, UniProt P56524).
T2 construct: endogenous in cells; host or cells: CWR-22Rv1 cells, nuclear extracts, 1% O2
T2 sequence (P56524 whole entry): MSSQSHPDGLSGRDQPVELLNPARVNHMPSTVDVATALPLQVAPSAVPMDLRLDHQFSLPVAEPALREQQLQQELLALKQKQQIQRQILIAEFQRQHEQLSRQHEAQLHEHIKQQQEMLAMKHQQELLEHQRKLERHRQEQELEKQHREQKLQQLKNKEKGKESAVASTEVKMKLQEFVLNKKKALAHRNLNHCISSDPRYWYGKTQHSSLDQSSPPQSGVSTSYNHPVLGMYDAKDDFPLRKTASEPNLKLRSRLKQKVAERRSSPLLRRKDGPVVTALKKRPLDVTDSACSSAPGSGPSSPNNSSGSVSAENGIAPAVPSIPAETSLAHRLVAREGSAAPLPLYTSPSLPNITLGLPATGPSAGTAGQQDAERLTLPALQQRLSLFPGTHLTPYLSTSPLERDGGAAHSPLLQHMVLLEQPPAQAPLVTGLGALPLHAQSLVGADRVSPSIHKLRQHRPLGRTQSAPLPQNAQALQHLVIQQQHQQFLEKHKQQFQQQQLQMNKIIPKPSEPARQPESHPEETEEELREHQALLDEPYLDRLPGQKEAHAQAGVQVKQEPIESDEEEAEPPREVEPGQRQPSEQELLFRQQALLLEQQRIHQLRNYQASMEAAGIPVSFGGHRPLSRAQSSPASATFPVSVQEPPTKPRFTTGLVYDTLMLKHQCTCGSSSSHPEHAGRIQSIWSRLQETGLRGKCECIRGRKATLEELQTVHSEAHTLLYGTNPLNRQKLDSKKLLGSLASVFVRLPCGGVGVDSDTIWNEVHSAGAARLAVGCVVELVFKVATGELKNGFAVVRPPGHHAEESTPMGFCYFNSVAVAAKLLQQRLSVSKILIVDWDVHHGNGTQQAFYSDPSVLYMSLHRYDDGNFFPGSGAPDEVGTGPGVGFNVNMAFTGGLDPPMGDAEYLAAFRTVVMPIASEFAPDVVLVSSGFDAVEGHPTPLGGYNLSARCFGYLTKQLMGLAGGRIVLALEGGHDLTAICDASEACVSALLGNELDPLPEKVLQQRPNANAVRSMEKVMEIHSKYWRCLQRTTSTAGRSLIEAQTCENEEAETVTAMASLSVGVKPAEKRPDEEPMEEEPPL
Nature of the data set: Nuclear NCoR1 immunoprecipitated with MEF-2 antibody in CWR-22Rv1 cells under hypoxia. The class given is cell-based. Particulars: 1% O2, read-out: IC50 for inhibiting hypoxia-induced nuclear MEF2/HDAC4/NCoR1 formation (MEF-2 and NCoR1 IP). From the text:
While HIF-1α is required for the upregulation of hypoxia survival genes, it is not required for the hypoxia-induced widespread transcriptional repression, which is also needed for enhanced survival in the compromised TME (Denko et al. Nat Rev Cancer 8, 705-713 (2008)). MEF-2 is also a HDAC4 client (McKinsey et al. Trends Biochem Sci 27, 40-47 (2002)). MEF-2 dimers bind to target gene promoters, forming a hydrophobic groove composed of AA 1-78 of each monomer to which HDAC4 binds via its amphipathic helix at AA 168-184 (Han et al. J Mol Biol 345, 91-102 (2005)). When MEF-2 binds, HDAC4 forms a NCoR1/HDAC3 complex, which deacetylates MEF2 and histones within its proximity; thereby, repressing expression of its target genes (McKinsey 2002). When CWR-22Rv1 cells are switched from a 21% to a 1% 02 environment in vitro, there is a 3-fold increase in NCoR1 immunoprecipitated with MEF-2 from nuclear extracts (FIG. 36). Co-treatment with TasQ inhibits this hypoxia-induced increase in nuclear MEF2/HDAC4/NCoR1 formation with an IC50 of 5 μM (FIG. 36). These in vitro results are consistent with gene expression analysis of CWR22-RH PDX tissue from castrate hosts in vivo, which document that daily oral TasQ (10 mg/kg/d) inhibits the binding of NCoR1, and thus HDAC3 to the MEF-2/HDAC4 complex, relieving repression of MEF-2 target genes needed for survival under hypoxic conditions (Table 1B).

Read-outs that look alike come from different tables or passages of the source.

`COc1cccc2c1c(O)c(C(=O)N(c1ccc(C(F)(F)F)cc1)C1CCCCC1)c(=O)n2C` [ESATA-20]: in data set [1], the IC90 – broadly, the concentration needed for an effect of 90% – was found to be 1000 nM. Moreover, the values for the IC50 in data set [2] (Homo sapiens) and in data set [3] were 1000 nM and below 1000 nM, respectively. For the same molecule, the “fold lower binding affinity than TasQ” value at human AHR (competitive PAL AHR binding assay and cell-based AHR-promoter assay) is 10 fold.

On to `COc1cccc2c1c(O)c(C(=O)N(C)c1ccc(C(F)(F)F)cc1)c(=O)n2C` [TasQ, Tasquinimod], for which the IC90 in data set [1] came to 10000 nM. The figures for the IC50 in data set [2] and in data set [3] were 2500 nM and 5000 nM, respectively. Moreover, at human AHR (20 min competitive binding, liver cytosol of hAHR transgenic mice, read-out: EC50 as competitive ligand for human AHR (PAL assay)), the EC50 (as a rule, the concentration at which the effect is half-maximal) turned out to be 1000 nM.

The values above are taken from patent publication US20250059139A1, “COMPOUNDS FOR TREATMENT OF CANCER” (THE JOHNS HOPKINS UNIVERSITY, priority 2021, published 2025).
